Patent US10167300B2, “Metalloenzyme inhibitor compounds as fungicides” (priority 2014, dated 2019)
Like-named read-outs stand apart in the source and are kept apart here.

Experiments:
Type in all cases: in vivo, Mycosphaerella graminicola on wheat plants (variety Yuma)
[1] = Type B (low volume, EC formulation, track sprayer 200 L/ha) assay, leaf blotch of wheat, SEPTTR field isolate (FI SEPTTR); conditions: Zymoseptoria tritici, 72 h
Outline: (§1)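 Wheat seedlings (Yuma, first leaf emerged) sprayed with acetone/Triton X-100 solutions (Type A) or 10% EC diluted in 0.1% Trycol at 200 L/ha (Type B), inoculated before or after spraying. Inoculated plants held 3 days at 20 °C, 100% RH, then greenhouse; % disease control from severity versus untreated plants.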

[2] = system: Mycosphaerella graminicola; Anamorph: Septoria tritici; Bayer Code SEPTTR (standard laboratory isolate, SI SEPTTR); assay: Type B (low volume, EC formulation, track sprayer 200 L/ha) assay, leaf blotch of wheat, standard laboratory SEPTTR isolate (SI SEPTTR); conditions: Zymoseptoria tritici, 72 h
Procedure: Example A: Evaluation of Fungicidal Activity: Leaf Blotch of Wheat (Mycosphaerella graminicola; Anamorph: Septoria tritici; Bayer Code SEPTTR)
For Type A assays, technical grades of the experimental fungicides in Table 4 below were dissolved in acetone, and then mixed with nine volumes of water containing 110 ppm Triton X-100. The fungicide solutions were applied onto wheat seedlings using an automated booth sprayer. For Type B assays, emulsifiable concentrate (EC) formulations of technical grades of the experimental fungicides in Table 4 below were prepared at 10% (w/v), and then mixed with 150 volumes of 0.1% Trycol 5941. These solutions were applied onto wheat seedlings using an automated track sprayer at 200 L/ha. All sprayed plants were allowed to air dry prior to further handling.
Wheat plants (variety Yuma) were grown from seed in a greenhouse in 50% mineral soil/50% soil-less Metro mix until the first leaf was fully emerged, with 7-10 seedlings per pot. Prior to or after application of experimental fungicides, plants were inoculated either with spores of a standard laboratory SEPTTR isolate (SI SEPTTR) or with spores from a SEPTTR field isolate collected from Wellsbourne, England in 2012 (FI SEPTTR). After inoculation the plants were kept for 3 days at 20° C. in 100% relative humidity (one day in a dark dew chamber followed by two days in a lighted dew chamber). Plants were then transferred to a 20° C. greenhouse for disease development. When disease symptoms were fully expressed on untreated plants, infection levels on treated plants were assessed on a scale of 0 to 100 percent disease severity. Percent disease control was calculated using the ratio of disease severity on treated plants relative to untreated plants.

[3] = system: Mycosphaerella graminicola; Anamorph: Septoria tritici; Bayer Code SEPTTR (standard laboratory isolate, SI SEPTTR); assay: Type A (high volume) assay, leaf blotch of wheat, standard laboratory SEPTTR isolate (SI SEPTTR); conditions: for pest or weed control at 50 ppm: Zymoseptoria tritici
Outline: as §1

[4] = field isolate, low volume EC, 100 g/ha, 3 Day Curative, wheat (Yuma), read-out: Disease Control, FI SEPTTR Type B Assay (100 g/ha) 3 DC
[5] = field isolate, low volume EC, 100 g/ha, 3 Day Protectant, wheat (Yuma), read-out: Disease Control, FI SEPTTR Type B Assay (100 g/ha) 3 DP
[6] = standard laboratory isolate, low volume EC, 100 g/ha, 3 Day Curative, wheat (Yuma), read-out: Disease Control, SI SEPTTR Type B Assay (100 g/ha) 3 DC
[7] = standard laboratory isolate, low volume EC, 100 g/ha, 3 Day Protectant, wheat (Yuma), read-out: Disease Control, SI SEPTTR Type B Assay (100 g/ha) 3 DP
[8] = 24 h, standard laboratory isolate, high volume, 50 ppm, 1 Day Protectant, wheat (Yuma), read-out: Disease Control, SI SEPTTR Type A Assay (50 ppm) 1 DP
[9] = 72 h, standard laboratory isolate, high volume, 50 ppm, 3 Day Curative, wheat (Yuma), read-out: Disease Control, SI SEPTTR Type A Assay (50 ppm) 3 DC

Compound	pest or weed control at 100 g/ha ([1]; read-out: Disease Control, FI SEPTTR Type B Assay (100 g/ha) 3 DC) [%]	pest or weed control at 100 g/ha ([1]; read-out: Disease Control, FI SEPTTR Type B Assay (100 g/ha) 3 DP) [%]	pest or weed control at 100 g/ha ([2]; read-out: Disease Control, SI SEPTTR Type B Assay (100 g/ha) 3 DC) [%]	pest or weed control at 100 g/ha ([2]; read-out: Disease Control, SI SEPTTR Type B Assay (100 g/ha) 3 DP) [%]	pest or weed control at 50 ppm ([3]; 24 h, read-out: Disease Control, SI SEPTTR Type A Assay (50 ppm) 1 DP) [%]	pest or weed control at 100 g/ha [1, 4] [%]	pest or weed control at 100 g/ha [1, 5] [%]	pest or weed control at 100 g/ha [2, 6] [%]	pest or weed control at 100 g/ha [2, 7] [%]	pest or weed control at 50 ppm [3, 8] [%]	pest or weed control at 50 ppm [3, 9] [%]	Disease Control, SI SEPTTR Type A Assay (50 ppm) 1 DP ([3]; standard laboratory isolate, high volume, 50 ppm, 1 Day Protectant, wheat (Yuma))
CC(C)(C)C(O)(c1cncnc1)c1ccc(-c2ccc([Si](C)(C)C)cc2)cn1 (stereo not drawn) [Compound 121]	80 to 100	60 to 79	80 to 100	80 to 100	80 to 100	–	–	–	–	–	–	–
CC(C)(C)C(O)(c1cncnc1)c1ccc(-c2ccc(OC(F)(F)F)cc2)cn1 (stereo not drawn) [Compound 27, 2,2-dimethyl-1-(pyrimidin-5-yl)-1-(5-(4-(trifluoro-methoxy)phenyl)pyridin-2-yl)propan-1-ol]	–	–	–	–	–	80 to 100	80 to 100	80 to 100	80 to 100	80 to 100	80 to 100	–
CC(C)(C)C(O)(c1cncnc1)c1ccc(-c2ccc(OC3CC3)cc2)cn1 (stereo not drawn) [Compound 102]	–	–	–	–	–	80 to 100	80 to 100	80 to 100	80 to 100	80 to 100	–	–
CC(C)(C)C(O)(c1cncnc1)c1ccc(-c2ccc(F)cc2)cn1 (stereo not drawn) [Compound 115]	–	–	–	–	–	80 to 100	80 to 100	80 to 100	80 to 100	80 to 100	–	–
OC(Cc1ccc(Cl)cc1F)(c1cccnc1)c1ccc(-c2ccc(OC(F)(F)F)cc2)cn1 (stereo not drawn) [Compound 90]	–	–	–	–	–	80 to 100	80 to 100	80 to 100	80 to 100	80 to 100	–	–
Cc1ncc(C(O)(c2ccc(-c3ccc(OC(F)(F)F)cc3)cn2)C(C)(C)C)cn1 (stereo not drawn) [Compound 83]	–	–	–	–	–	80 to 100	40 to 59	< 40	40 to 59	40 to 59	–	–
CC(C)(C)C(O)(c1cccnc1)c1ccc(-c2ccc(OC(F)(F)F)cc2)cn1 (stereo not drawn) [Compound 80]	–	–	–	–	–	80 to 100	80 to 100	80 to 100	80 to 100	80 to 100	–	–
Cn1cc(-c2ccc(C(O)(c3cncnc3)C(C)(C)C)nc2)cn1 (stereo not drawn) [Compound 122]	–	–	–	–	–	60 to 79	60 to 79	80 to 100	80 to 100	80 to 100	–	–
Cc1cc(OC(F)(F)F)ccc1-c1ccc(C(O)(c2cncnc2)C(C)(C)C)nc1 (stereo not drawn) [Compound 117]	–	–	–	–	–	80 to 100	80 to 100	80 to 100	80 to 100	80 to 100	–	–
COc1ncncc1C(O)(c1ccc(-c2ccc(C3(C#N)CC3)cc2)cn1)C(C)(C)C (stereo not drawn) [Compound 169]	–	–	–	–	–	80 to 100	80 to 100	80 to 100	60 to 79	80 to 100	–	–
CC(C)(C)C(O)(c1cncnc1)c1ccc(-c2ccc(OC(F)F)cc2)cn1 (stereo not drawn) [Compound 59]	–	–	–	–	–	80 to 100	80 to 100	80 to 100	80 to 100	80 to 100	80 to 100	–
CC(C)C(O)(c1cncnc1)c1ccc(-c2ccc(OCC(F)(F)F)nc2)cn1 (stereo not drawn) [Compound 64]	–	–	–	–	–	60 to 79	80 to 100	80 to 100	80 to 100	80 to 100	80 to 100	–
Cc1cc(-c2ccc(C(O)(c3cncnc3)C(C)(C)C)nc2)ccc1OC(F)(F)F (stereo not drawn) [Compound 116]	–	–	–	–	–	80 to 100	60 to 79	80 to 100	80 to 100	60 to 79	–	–
OC(c1cncnc1)(c1ccc(Oc2ccc(C(F)(F)F)cc2)cn1)C1CC1 (stereo not drawn) [Compound 17]	–	–	–	–	–	60 to 79	60 to 79	80 to 100	80 to 100	80 to 100	80 to 100	–
CC(C)(C)C(O)(c1cncnc1)c1ccc(-c2ccc(C(F)(F)F)cc2)cn1 (stereo not drawn) [Compound 96]	–	–	–	–	–	80 to 100	80 to 100	80 to 100	80 to 100	80 to 100	–	–
CC(C)(C)C(O)(Cc1cncnc1)c1ccc(-c2ccc(OC(F)(F)F)cc2)cn1 (stereo not drawn) [Compound 74]	–	–	–	–	–	40 to 59	< 40	80 to 100	80 to 100	80 to 100	–	–
OC(Cc1cncnc1)(c1ccc(-c2ccc(Cl)cc2)cn1)C1CC1 (stereo not drawn) [Compound 39]	–	–	–	–	–	60 to 79	40 to 59	80 to 100	80 to 100	80 to 100	80 to 100	–
CSc1ccc(-c2ccc(C(O)(c3cncnc3)C(C)(C)C)nc2)cc1 (stereo not drawn) [Compound 98]	–	–	–	–	–	80 to 100	80 to 100	80 to 100	80 to 100	80 to 100	–	–
OC(c1cccnc1)(c1ccc(-c2ccc(OC(F)F)cc2)cn1)C1CC1 (stereo not drawn) [Compound 81]	–	–	–	–	–	< 40	80 to 100	80 to 100	60 to 79	80 to 100	–	–
Cc1ncncc1C(O)(c1ccc(-c2ccc(OC(F)(F)F)cc2F)cn1)C(C)(C)C (stereo not drawn) [Compound 157]	–	–	–	–	–	80 to 100	80 to 100	80 to 100	80 to 100	80 to 100	–	–
CC(C)(C)C(O)(c1cncnc1)c1ccc(-c2ccc(Cl)cc2)cn1 (stereo not drawn) [Compound 65]	–	–	–	–	–	60 to 79	60 to 79	80 to 100	80 to 100	80 to 100	–	–
CC(C)(C)C(O)(c1ccc(-c2ccc(OC(F)(F)F)cc2)cn1)c1cncs1 (stereo not drawn) [Compound 84]	–	–	–	–	–	60 to 79	60 to 79	80 to 100	80 to 100	80 to 100	–	–
CC(C)C(O)(c1cncnc1)c1ccc(Oc2ccc(C(F)(F)F)cc2)cn1 (stereo not drawn) [Compound 3, 2-methyl-1-(pyrimidin-5-yl)-1-(5-(4-(trifluoromethyl)-phenoxy)pyridin-2-yl)propan-1-ol]	–	–	–	–	–	60 to 79	40 to 59	80 to 100	80 to 100	–	80 to 100	D (<40)
CC(C)(C)C(O)(c1cccnc1)c1ccc(-c2ccc(OCC(F)(F)F)cc2)cn1 (stereo not drawn) [Compound 92]	–	–	–	–	–	80 to 100	80 to 100	80 to 100	80 to 100	80 to 100	–	–
